Paper PMC7175117, “Biological Evaluation and Docking Studies of New Carbamate, Thiocarbamate, and Hydrazide Analogues of Acyl Homoserine Lactones as Vibrio fischeri-Quorum Sensing Modulators” (Biomolecules, 2020)
Entries after “also recorded” stand apart in the source; their conditions may differ.

Assays:
[1] = tested on: Vibrio fischeri quorum sensing system; experiment: Antagonistic activity: decrease of bioluminescence in competition with OHHL (200 nM) in recombinant E. coli NM522 with sensor plasmid pSB401; assay type: cell-based; details: for IC50: increasing concentration of compound in competition with 200 nM OHHL; for residual bioluminescence: 100 µM of analogue in competition with 200 nM OHHL
Experimental: (§1) The recombinant Escherichia coli strain NM522 with the sensor plasmid pSB401 was used to measure the induction of luminescence. Bacterial cultures were grown in Luria broth (50 mL) at 30 °C. After 18 h, this bacterial culture was diluted 10 times to be used in the assay using 96-well plates (100 µL per well). For agonistic activity, compounds were tested at increasing concentrations in DMSO (max 2% in a total volume of 200 µL of LB). For antagonistic activity, compounds were tested in competition with OHHL (200 nM) at increasing concentrations in DMSO (max 2% in a total volume of 200 µL). This 200 nM concentration of OHHL is fully pertinent since concentrations as low as 10 or 50 nM are already valid protocols as reported in meaningful studies. Bioluminescence was measured with a Tecan spark luminometer (Männedorf, Switzerland).
(§2) All compounds were evaluated for the ability to induce bioluminescence (agonistic activity) or to decrease bioluminescence in the presence of 3-oxo-hexanoyl-L-homoserine lactone (OHHL) at 200 nM (antagonistic activity). Hydrazide AHL analogues were deprived of any activity.
A first assessment of the antagonistic activity was performed by measuring residual bioluminescence at 100 µM concentration of analogues in competition with 200 nM of OHHL. […] A residual bioluminescence of 42% for the L-butyl carbamate derivative 2 vs. 89% for the D-isomer 3 was measured showing the influence of the configuration on luminescence and therefore on QS inhibition.
To determine IC50 values, the decrease of bioluminescence of was measured using increasing concentration of each compound in presence of 200 nM of OHHL (Table 1). Values ranging from 22 to 94 µM, in the range of other reported of AHL-structurally related QS inhibitors, were measured for compounds 2, 4–7, and 9–11. Differences in the calculated LogP values are consistent with inhibitory activity for most compounds except 4-nitrobenzyl analogues. This is the case for all thiocarbamates vs. carbamates, and also when comparing the butyl (2) and hexyl (4) derivatives, or the benzyl and 4-bromobenzyl substituents.

[2] = tested on: Vibrio fischeri quorum sensing system; experiment: Agonistic activity: induction of bioluminescence in recombinant E. coli NM522 with sensor plasmid pSB401; assay type: cell-based
Experimental: as §1, §2

SMILES	IC50 [1]	residual bioluminescence [1]	further results
CCCCSC(=O)N[C@H]1CCOC1=O [Compound 9, N-(butylthiocarbonyl)-L-homoserine lactone]	45 µM	–	–
CCCCOC(=O)N[C@H]1CCOC1=O [Compound 2, N-(butoxycarbonyl)-L-homoserine lactone]	94 µM	42%	–
CCCCCCOC(=O)N[C@H]1CCOC1=O [Compound 4, N-(hexyloxycarbonyl)-L-homoserine lactone]	73 µM	22%	–
O=C(N[C@H]1CCOC1=O)OCc1ccccc1 [Compound 5, N-(benzyloxycarbonyl)-L-homoserine lactone]	86 µM	–	–
O=C(N[C@H]1CCOC1=O)OCc1ccc(Br)cc1 [Compound 6, N-(4-bromobenzyloxycarbonyl)-L-homoserine lactone]	64 µM	–	–
CCCCOC(=O)N[C@@H]1CCOC1=O [Compound 3, N-(butoxycarbonyl)-D-homoserine lactone]	–	89%	–
O=C(N[C@H]1CCOC1=O)SCc1ccccc1 [Compound 10, N-(benzylthiocarbonyl)-L-homoserine lactone]	64 µM	–	–
CCOC(=O)N[C@H]1CCOC1=O [Compound 1, N-(ethoxycarbonyl)-L-homoserine lactone]	–	–	bioluminescence induced, relative to that obtained with the natural ligand OHHL at 200 nM ([2]; compound at 200 µM, OHHL reference at 200 nM): 18%; agonistic activity ([2]; induction of bioluminescence, increasing concentrations): weak agonistic activity; also recorded: very weak agonistic activity
